Results as given in US20230266303A1, “SYSTEM” (GTINVENT LIMITED, priority 2020, published 2023).
Several values for one entry are separate records, joined by “and”; a condition that tells them apart may be missing. Identical values can stand only once. Entries after “also recorded” stand apart in the source; their conditions may differ.

System: endogenous tau in dSH-SY5Y cells
Assay: Western blot of whole lysate and Triton X-100 sequential extraction of endogenous tau
Type: cell-based, human
Details: 24 h
Experimental: Cells were detached from the coverslip by incubation in 0.25% trypsin-EDTA (Gibco™) and then mixed with 5 ml culture media. The cells were harvested by centrifugation at 500×g for 5 minutes and the supernatant was discarded. The cell pellet was resuspended in ice-cold PBS and centrifuged at 500×g at 4° C. Cells were lysed in 1% Triton lysis buffer (1% Triton X-100 (v/v), 150 mM NaCl and 50 mM Tris-HCl, pH 7.6) containing Halt™ protease inhibitors (Thermo Scientific) and phosphatase inhibitors (Thermo Scientific) for 15 minutes on ice. The samples were centrifuged at 16,000×g for 30 minutes at 4° C., and the supernatant was collected (Triton-soluble fraction). The pellet was resuspended in SDS lysis buffer (1% SDS (w/v), 150 mM NaCl and 50 mM Tris-HCl, pH 7.6) containing protease and phosphatase inhibitors. The samples were centrifuged at 16,000×g for 30 minutes at room temperature and the supernatant was collected (Triton-insoluble fraction). Protein concentration in the Triton-soluble fractions were determined using the Pierce™ BCA Protein Assay Kit (Thermo Scientific) according to the manufacturer's instructions.
For cell lysates, Triton-soluble protein (20 μg) and an equal volume of Triton-insoluble protein were each mixed with Læmmli sample buffer (4×) (Bio-Rad Laboratories) containing 5% (v/v) […] and heated at 95° C. for 5 minutes. For recombinant protein, 3 μg was mixed with sample buffer without reducing agent or boiling. All samples were centrifuged for five minutes at 1000×g and samples were loaded onto 4-20% Mini-PROTEAN® precast gels (Bio-Rad Laboratories) and run at 120 V for 1 h in Tris-glycine running buffer (25 mM Tris, 192 mM glycine, pH 8.3), or until the sample buffer reached the end of the gel. For Coomassie staining, the gel was washed three times in double distilled water for five minutes and stained with Imperial™ protein stain (Thermo Scientific) for 1 h and then destained overnight in double distilled water. The stained gel was scanned using an HP Photosmart C5280 scanner. For western blotting, the separated proteins on the gel were transferred to nitrocellulose membrane (0.45 μm) at 200 mA for 90 minutes. The membranes were blocked in 5% (w/v) bovine serum albumin (BSA) in Tris-buffered saline (50 mM Tris-HCl, pH7.4, 150 mM NaCl) containing 0.1% (v/v) Tween-20 (TBS-T) for 1 h rocking at room temperature. Membranes were incubated with primary antibodies diluted in 5% BSA in TBS-T overnight at 4° C. The following primary antibodies and dilutions were used; Anti-Tau (polyclonal, total tau) (Thermo Scientific) (1:2500), AT180 (anti-pT231) (Thermo Scientific) (1:1000), AT8 (anti-pS202-T205) (1:1000) (Thermo Scientific), anti-GAPDH (1:5000) (Abcam). […] Immunoreactive protein bands were detected using ECL substrate (Clarity™, Bio-Rad) and X-ray films were scanned using an HP Photosmart C5280 scanner. FIJI was used to quantify the bands in arbitrary densitometry units. The density of bands corresponding to full-length tau (50-70 kDa) were determined and normalised against amount of GAPDH. […] For the quantification of Triton-insoluble and soluble protein, the proportion of tau in the insoluble and soluble fraction was calculated using the equations insoluble/(soluble+insoluble) or soluble/(soluble+insoluble), respectively and expressed as a percentage of the respective soluble or insoluble control value. […]

[1] = whole lysate (RIPA), 1 μM soluble dGAE

dGAE: recombinant truncated tau, 95 residues fragment of Tau (2N4R), Ile-297 to Glu-391, SEQ ID NO: 4
proportion of AT180 tau in Triton-X 100 insoluble fraction, percentage of buffer-treated controls (soluble dGAE, buffer 100±0): 139.4±14.54% and 139.4±14.5%
proportion of AT180 tau in Triton-X 100 soluble fraction, percentage of buffer-treated controls (soluble dGAE, buffer 100±0): 82.98±5.48% and 83.0±5.5%
AT8 immunoreactivity vs buffer-treated control (western blot) [1]: no significant difference; also recorded: marginal increases
AT180 immunoreactivity vs buffer-treated control (western blot) [1]: no significant difference; also recorded: marginal increases
total tau immunoreactivity vs buffer-treated control (western blot) [1]: no significant difference; also recorded: no change
